Source: article PMC4356375, “Snapshots of ligand entry, malleable binding and induced helical movement in P-glycoprotein” (Acta Crystallographica Section D: Biological Crystallography, 2015)
pEC50, pIC50: −log10 of the molar value.

Assays:
P-gp [1] = target: T1, P-gp (Mus musculus, UniProt P21447); test: Stimulation of basal ATPase activity of purified P-gp; type: biochemical; conditions: 310 K
T1 construct: inferred from the Ni-NTA purification; made in house; host or cells: Pichia pastoris
Experimental: The ATPase activity of P-gp was measured at 310 K using the ATP-regenerating system described by Vogel & Steinhart (1976[▶]) as modified by Urbatsch et al. (1995[▶]). Briefly, 1 µg P-gp was added to 100 µl 50 mM Tris–HCl pH 7.5 buffer containing 10 mM ATP, 12 mM MgCl2, 6 mM phosphoenolpyruvate, 1 mM NADH, 10 units of lactate dehydrogenase, 10 units of pyruvate kinase and test compounds over a range of concentrations. ATP hydrolysis was determined by the decrease in NADH absorbance at OD340 using a Filtermax F5 Multiplate Spectrophotometer. The ATPase activity was calculated using the equation ΔOD/(∊ × [protein] × time), where ΔOD is the change in absorbance and ∊ is the extinction coefficient of NADH. The concentration of purified P-gp was estimated by comparing the SDS–PAGE intensity of Coomassie-stained protein bands with known amounts of BSA. EC50 values were calculated using GraphPad Prism (GraphPad Software, San Diego, California, USA) using nonlinear regression (curve fit) from the entire concentration range.
Gene-optimized mouse P-gp (ABCB1a; GenBank JF834158) was expressed in Pichia pastoris in 10 l cultures in a BioFlo 415 bioreactor (New Brunswick Scientific) and was induced by the slow addition of methanol (3.6 ml per hour per litre of culture volume) overnight as described previously (Aller et al., 2009[▶]; Bai et al., 2011[▶]). […]

P-gp [2] = target: T2, P-gp (Cricetulus griseus, UniProt P21448); test: Calcein-AM transport assay in P-gp-overexpressing CR1R12 cells; type: cell-based, Chinese hamster; conditions: calcein-AM 0.25 µM, room temperature, read-out: IC50 inhibition of calcein-AM export
T2 construct: endogenous in cells; host or cells: Chinese hamster ovary CR1R12 cells (colchicine-selected; parental AUXB1)
T2 sequence (P21448 whole entry): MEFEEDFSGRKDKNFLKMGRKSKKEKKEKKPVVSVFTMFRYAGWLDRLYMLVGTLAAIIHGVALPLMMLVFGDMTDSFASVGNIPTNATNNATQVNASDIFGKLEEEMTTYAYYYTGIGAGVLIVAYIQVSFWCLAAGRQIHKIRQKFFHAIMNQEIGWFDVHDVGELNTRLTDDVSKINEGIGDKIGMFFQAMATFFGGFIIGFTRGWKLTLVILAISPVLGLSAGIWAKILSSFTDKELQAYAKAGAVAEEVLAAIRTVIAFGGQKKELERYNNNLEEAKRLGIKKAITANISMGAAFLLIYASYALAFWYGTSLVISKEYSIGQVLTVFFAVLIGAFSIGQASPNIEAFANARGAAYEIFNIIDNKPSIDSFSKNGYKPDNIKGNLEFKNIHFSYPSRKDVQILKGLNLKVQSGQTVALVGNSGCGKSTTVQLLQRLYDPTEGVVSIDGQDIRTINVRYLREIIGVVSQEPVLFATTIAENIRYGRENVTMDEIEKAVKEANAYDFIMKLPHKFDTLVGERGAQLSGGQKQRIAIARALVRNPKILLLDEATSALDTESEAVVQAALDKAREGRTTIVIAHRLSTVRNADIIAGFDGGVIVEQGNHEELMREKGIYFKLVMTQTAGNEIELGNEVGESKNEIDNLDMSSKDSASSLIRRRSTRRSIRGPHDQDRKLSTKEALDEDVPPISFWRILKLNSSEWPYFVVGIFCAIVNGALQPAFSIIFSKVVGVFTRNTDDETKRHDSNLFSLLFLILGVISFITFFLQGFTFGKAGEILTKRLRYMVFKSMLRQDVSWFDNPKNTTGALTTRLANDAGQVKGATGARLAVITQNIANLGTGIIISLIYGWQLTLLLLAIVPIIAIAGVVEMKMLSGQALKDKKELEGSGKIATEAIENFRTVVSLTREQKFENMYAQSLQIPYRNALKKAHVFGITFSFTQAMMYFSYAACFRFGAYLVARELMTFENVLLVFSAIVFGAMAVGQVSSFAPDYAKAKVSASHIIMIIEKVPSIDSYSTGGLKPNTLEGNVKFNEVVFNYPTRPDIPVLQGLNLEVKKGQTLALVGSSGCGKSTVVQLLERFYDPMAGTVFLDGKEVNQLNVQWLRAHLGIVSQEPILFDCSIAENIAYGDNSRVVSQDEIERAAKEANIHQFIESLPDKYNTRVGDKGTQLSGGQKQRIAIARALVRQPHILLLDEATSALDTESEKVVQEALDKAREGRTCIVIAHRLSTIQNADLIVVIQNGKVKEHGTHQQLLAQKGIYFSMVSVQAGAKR
Experimental: It has commonly been used in fluorescence-based transport assays for P-gp in whole-cell systems (Al-Shawi & Senior, 1993[▶]). Chinese hamster ovary CR1R12 cells were cultured in the presence of 5 µg ml^−1 colchicine to maintain P-gp overexpression. In general, ∼5 × 10^5 CR1R12 cells per well were pretreated with test compounds in serially increasing concentrations at room temperature for 15 min; calcein-AM (0.25 µM) was then added and incubated for an additional 15 min at room temperature while monitoring the fluorescence intensity (excitation at 485 nm, emission at 535 nm). 100% was the maximum fluorescence achieved by full inhibition of P-gp in CR1R12 cells. The means and standard deviations were obtained from quadruplet experiments.

CR1R12 cells = test: Sensitization assay: growth of CR1R12 cells with colchicine (sulforhodamine B); type: cell-based, Chinese hamster
Experimental: (§1) CR1R12 cells were grown in the presence of increasing concentrations of colchicine for 3 d at given concentrations of test compounds. Cell densities were determined using the sulforhodamine B colorimetric assay (Vichai & Kirtikara, 2006[▶]). 100% is defined as the growth in the absence of colchicine. Parental AUXB1 cells were included as controls. […]
(§2) Figure S4 Sensitization of CR1R12 cells to the anti-cancer drug colchicine by homotrimeric cyclopeptides. Relative to parental control AUXB1 cells, P-gp-overexpressing CR1R12 cells are ~200 times more resistant to the anticancer drug colchicine (gray lines in all panes). Their 50% growth […]
(§3) Presence of (a) QZ-Ala, green, (b)
(§4) QZ-Val, blue, and (d) QZ-Phe, red, in the growth media sensitized the CR1R12 cells to colchicine in a concentration-dependent manner with full reversal of P-gp mediated multidrug resistance seen at 2 […]
(§5) increasing concentrations of (c) QZ-Leu, yellow, also sensitized CR1R12 cells to colchicine, where […]
(§6) higher concentrations. Shown are representative data from three independent experiments. The concentrations are plotted in log scale.

[3] = Solubility remark (Fig. S3 legend); type: physicochemical; conditions: at high concentrations
[4] = test system: P-gp-over-expressing CR1R12, and parental control AuxB1, cells; test: Cytotoxicity of the cyclopeptides to CR1R12 and parental AuxB1 cells (Fig. S3); type: cell-based, Chinese hamster
Experimental: Figure S1 NMR spectra of QZ-Ala, QZ-Leu and QZ-Phe. 13C (top) and 1H (bottom) spectra are […]
Figure S2 Structure based alignment. Two views of P-gp depicting Cα position shifts between the new (P-gp native at 3.4 Å, reported here) and previously published model (pdb code: 4KSB). Changes are depicted by color with red indicating the largest shift in Cα position (8.35 Å). Alignments and pairwise Cα RMSD calculations were calculated using the python module ‘ColorByRMSD’ within the PyMOL Molecular Graphics System (Schrödinger, LLC)
Figure S3 Cytotoxicity of the homotrimeric cyclopeptide compounds to P -gp-over-expressing CR1R12, and parental control AuxB1, cells using Calcein-AM transport assay. P-gp mediates mild […]
of this compound at high concentrations. The mean and SD of quadruplet experiments are shown; data were fit using the Hill equation. QZ-Ala, QZ-Val, QZ-Leu and QZ-Phe are drawn in green, blue, yellow and red curves, respectively. The concentrations are plotted in log scale.
as §2
Presence of (a) QZ-Ala, green, (b) […]

AUXB1 cells = test: Growth inhibition of parental control AUXB1 cells by colchicine; type: cell-based, Chinese hamster; conditions: Cricetulus griseus, read-out: 50% growth inhibition (GI50)
Experimental: as §1, §2, §3, §4, §5, §6

T1 sequence (P21447 whole entry): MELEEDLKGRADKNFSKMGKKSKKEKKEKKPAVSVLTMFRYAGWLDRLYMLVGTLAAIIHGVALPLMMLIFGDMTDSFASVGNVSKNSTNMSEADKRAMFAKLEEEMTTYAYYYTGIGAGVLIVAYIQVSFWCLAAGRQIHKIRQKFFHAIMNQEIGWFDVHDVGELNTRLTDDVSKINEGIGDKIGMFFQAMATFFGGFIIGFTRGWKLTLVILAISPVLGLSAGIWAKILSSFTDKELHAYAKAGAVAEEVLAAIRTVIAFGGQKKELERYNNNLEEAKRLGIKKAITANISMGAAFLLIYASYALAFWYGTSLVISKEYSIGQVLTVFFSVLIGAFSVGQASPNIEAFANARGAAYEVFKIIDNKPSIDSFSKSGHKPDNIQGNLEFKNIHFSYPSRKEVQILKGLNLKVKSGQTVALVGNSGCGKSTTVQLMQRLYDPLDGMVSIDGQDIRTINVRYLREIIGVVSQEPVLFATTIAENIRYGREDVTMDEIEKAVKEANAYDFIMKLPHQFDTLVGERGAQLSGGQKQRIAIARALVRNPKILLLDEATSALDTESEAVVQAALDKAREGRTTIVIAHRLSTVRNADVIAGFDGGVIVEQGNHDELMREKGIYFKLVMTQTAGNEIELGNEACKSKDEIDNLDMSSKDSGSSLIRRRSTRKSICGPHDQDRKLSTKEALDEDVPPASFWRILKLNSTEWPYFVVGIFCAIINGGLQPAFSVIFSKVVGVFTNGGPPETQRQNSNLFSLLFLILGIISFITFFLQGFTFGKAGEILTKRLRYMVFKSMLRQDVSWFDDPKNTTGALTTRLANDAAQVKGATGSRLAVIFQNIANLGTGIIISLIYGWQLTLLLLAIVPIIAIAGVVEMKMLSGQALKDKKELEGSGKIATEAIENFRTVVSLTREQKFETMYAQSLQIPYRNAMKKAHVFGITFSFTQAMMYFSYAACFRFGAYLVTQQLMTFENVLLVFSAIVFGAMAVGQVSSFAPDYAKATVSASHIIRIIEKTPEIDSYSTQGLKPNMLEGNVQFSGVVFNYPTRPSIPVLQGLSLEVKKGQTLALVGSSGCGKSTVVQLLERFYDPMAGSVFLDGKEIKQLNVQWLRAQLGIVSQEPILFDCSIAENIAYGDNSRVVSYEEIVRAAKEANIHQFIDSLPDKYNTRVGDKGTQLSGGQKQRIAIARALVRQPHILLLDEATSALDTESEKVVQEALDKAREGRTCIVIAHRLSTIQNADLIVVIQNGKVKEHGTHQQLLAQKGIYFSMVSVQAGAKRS

C[C@@H]1NC(=O)c2c[se]c(n2)[C@H](C)NC(=O)c2c[se]c(n2)[C@H](C)NC(=O)c2c[se]c1n2 [QZ-Ala]
pEC50 (P-gp [1]): 6.04
pIC50 (P-gp [2]): 6.85

CC(C)C[C@@H]1NC(=O)c2c[se]c(n2)[C@H](CC(C)C)NC(=O)c2c[se]c(n2)[C@H](CC(C)C)NC(=O)c2c[se]c1n2 [QZ-Leu]
Cytotoxicity (in words) (CR1R12 cells; CR1R12 cells, higher concentrations): became cytotoxic
pIC50 (P-gp [2]): 5.27

O=C1N[C@@H](Cc2ccccc2)c2nc(c[se]2)C(=O)N[C@@H](Cc2ccccc2)c2nc(c[se]2)C(=O)N[C@@H](Cc2ccccc2)c2nc1c[se]2 [QZ-Phe]
pIC50 (P-gp [2]): 4.62
Solubility (in words) [3]: limited solubility
Full growth inhibition (in words) [4]: not observed

CC(C)[C@@H]1NC(=O)c2c[se]c(n2)[C@H](C(C)C)NC(=O)c2c[se]c(n2)[C@H](C(C)C)NC(=O)c2c[se]c1n2 [QZ-Val]
pIC50 (P-gp [2]): 5.77

COc1cc2c(c(OC)c1OC)-c1ccc(OC)c(=O)cc1[C@@H](NC(C)=O)CC2 [colchicine]
Resistance of CR1R12 cells relative to AUXB1 cells (CR1R12 cells; CR1R12 vs parental AUXB1): ~ 200 times
GI50 (CR1R12 cells; Cricetulus griseus, CR1R12 cells, no cyclopeptide, read-out: 50% growth inhibition (GI50)): 27000 nM
GI50 (AUXB1 cells): 140 nM
